The values below come from US20060167020A1, “Pyrazolopyrimidines as kinase inhibitors” (priority 2002, published 2006).

Structures can show the parent of a compound that is named as a salt.

GSK-3β, sequence (P49841 whole entry, species assumed): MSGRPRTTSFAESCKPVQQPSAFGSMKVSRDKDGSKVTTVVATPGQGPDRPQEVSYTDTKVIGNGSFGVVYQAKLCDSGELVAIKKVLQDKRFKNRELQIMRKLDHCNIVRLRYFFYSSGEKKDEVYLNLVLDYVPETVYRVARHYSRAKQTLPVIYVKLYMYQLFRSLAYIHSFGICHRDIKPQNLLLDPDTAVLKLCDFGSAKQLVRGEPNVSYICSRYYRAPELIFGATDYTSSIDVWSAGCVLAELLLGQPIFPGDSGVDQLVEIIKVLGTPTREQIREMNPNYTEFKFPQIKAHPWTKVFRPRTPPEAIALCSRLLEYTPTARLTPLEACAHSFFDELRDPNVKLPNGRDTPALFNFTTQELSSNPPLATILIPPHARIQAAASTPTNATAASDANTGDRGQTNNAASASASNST

This test addresses GSK-3β (Homo sapiens, UniProt P49841). The test can be described thus: GSK3 kinase scintillation proximity assay (phosphorylation of biotinylated glycogen synthase peptide). It counts as biochemical. Particulars: 20 nM kinase, 2.5 uM ATP, 2.8 uM peptide substrate, 40 minutes at room temperature; pIC50 = -log IC50 in Molar. From the text:
The phosphorylated biotinylated peptide is then captured onto streptavidin coated scintillation proximity assay (SPA) beads from Amersham Technology, where the signal from the ^33P is amplified via the scintillant contained in the beads.
GSK-3β is commercially available or may be cloned and expressed in E coli using standard techniques to produce soluble, active protein. The production of active protein involves purification in two steps using Metal Chelate and Ion Exchange Chromatography. Protein eluting from Ion Exchange provides >90% pure product that may then be concentrated for use in high throughput screening.
The kinase was assayed at a concentration of 20 nM final in 100 mM HEPES, pH 7.2 containing 10 mM magnesium chloride, 0.1 mg/mL bovine serum albumin, 1 mM dithiothreitol, 0.3 mg/mL heparin, 2.8 uM peptide substrate, 2.5 uM ATP, and 0.2 uCi/well γ^33P]-ATP. After 40 minutes incubation at room temperature, the reaction was stopped by addition of 100 mM EDTA and […] in 100 mM HEPES, pH7.2 followed by an additional solution of diluted Streptavidin coated SPA beads in PBS, pH 7.2 to give a final concentration of 0.25 mg of beads per assay well in a 96-well microtiter plate.
10 mM stock solutions of the compounds of the invention in 100% DMSO are generated as a first step in the screening process. The second step involves the creation of dose response plates where these compounds are diluted 10-fold in 100% DMSO to 1 mM concentrations and subsequently serially diluted 3-fold in 100% DMSO across the plate by automated liquid handling such that the final top concentration of inhibitor is 0.033 mM in the 30 uL kinase assay. The third step involves the creation of the assay plates. This is achieved by transferring 1 uL of the compounds to assay plates by automated liquid handling. The fourth step is to perform the assay as described and count the resulting plates in the Packard TopCount NXT microplate scintillation and luminescence counter.
The final step is data acquisition and analysis where IC50 values are generated for each compound by normalizing curve data to the equation 100*(U1−C2)/(C1−C2) (where U1 is the cpm value, C2 is the background, and C1 is the maximum number of counts), then fitting the normalized data to the equation y=Vmax*(1−(x/(K+x))). The IC50 values were converted to pIC50 values, i.e., −log IC50 in Molar concentration. The data is expressed below in Table 1.
Background: SPA uses beads or plates that emit light when radiolabelled molecules are held near them.
In general, IC50 refers to the concentration that inhibits the measured activity by half. `COc1cccc(-n2ncc3c(N/N=C/c4ccc(C(=O)NCCCN(C)C)cc4)ncnc32)n1` [Example 11, N-[3-(Dimethylamino)propyl]-4-((E)-{[1-(6-methoxypyridin-2-yl)-1H-pyrazolo[3,4-a]pyrimidin-4-yl]hydrazono}methyl)benzamide] gave an IC50 of under 100 nM.
As to `CN(C)CCNS(=O)(=O)c1ccc(/C=N/Nc2ncnc3c2cnn3-c2nccs2)cc1` [Example 25, N-[2-(Dimethylamino)ethyl]-4-((E)-{[1-(1,3-thiazol-2-yl)-1H-pyrazolo[3,4-a]pyrimidin-4-yl]hydrazonol}methyl)benzenesulfonamide], the IC50 is under 100 nM.
Regarding `C(=N\Nc1ncnc2c1cnn2-c1ccccn1)/c1cccnc1` [Example 13, Nicotinaldehyde (1-pyridin-2-yl-1H-pyrazolo[3,4-d]pyrimidin-4-yl)hydrazone], the IC50 was 100 to 1000 nM.
The value for `CS(=O)(=O)c1ccc(/C=N/Nc2ncnc3c2cnn3-c2cccc3[nH]cnc23)cc1` [Example 30, 4-(Methylsulfonyl)benzaldehyde [1-(1H-benzimidazol-4-yl)-1H-pyrazolo[3,4-d]pyrimidin-4-yl]hydrazone] was under 100 nM; that for `O=C(O)c1ccc(/C=N/Nc2ncnc3c2cnn3-c2cccc3[nH]cnc23)cc1` [Example 31, 4-((E)-{[1-(1H-benzimidazol-4-yl)-1H-pyrazolo[3,4-d]pyrimidin-4-yl]hydrazono}methyl)benzoic acid] was under 100 nM; that for `COc1cccc(-n2ncc3c(N/N=C/c4ccc(C(=O)NCCN(C)C)cc4)ncnc32)n1` [Example 10, N[2-(Dimethylamino)ethyl]-4-((E)-{[1-(6-methoxypyridin-2-yl)-1H-pyrazolo[3,4-d]pyrimidin-4-yl]hydrazono}methyl)benzamide] was under 100 nM.
Turning to `COc1cccc(-n2ncc3c(N/N=C/c4cccnc4)ncnc32)n1` [Example 2, Nicotinaldehyde [1-(6-methoxypyridin-2-yl)-1H-pyrazolo[3,4-d]pyrimidin-4-yl]hydrazone], the IC50 was under 100 nM.
The value for `C(=NNc1ncnc2c1cnn2-c1cccc2[nH]cnc12)c1ccncc1` [Example 28, Isonicotinaldehyde [1-(1H-benzimidazol-4-yl)-1H-pyrazolo[3,4-d]pyrimidin-4-yl]hydrazone] was under 100 nM.
For the compound `COc1cccc(-n2ncc3c(N/N=C/c4ccnc(Cl)c4)ncnc32)n1` [Example 4, 2-Chloroisonicotin aldehyde [1-(6-methoxypyridin-2-yl)-1H-pyrazolo[3,4-d]pyrimidin-4-yl]hydrazone], the IC50 was 100 to 1000 nM.
The result for `C(=NNc1ncnc2c1cnn2-c1nccs1)c1cccnc1` [Example 23, Nicotinaldehyde [1-(1,3-thiazol-2-yl)-1H-pyrazolo[3,4-d]pyrimidin-4-yl]hydrazone] reads 100 to 1000 nM; that for `O=C(O)c1ccc(/C=N/Nc2ncnc3c2cnn3-c2ccccn2)cc1` [Example 20, 4-{(E)-[(1-pyridin-2-yl-1H-pyrazolo[3,4-d]pyrimidin-4-yl)hydrazono]methyl}benzoic acid], 1000 to 10000 nM; that for `C(=N\Nc1ncnc2c1cnn2-c1ccncc1)/c1ccncc1` [Example 26, Isonicotinaldehyde (1-pyridin-4-yl-1H-pyrazolo[3,4-d]pyrimidin-4-yl)hydrazone], under 100 nM.
In turn, `CN(C)CCNS(=O)(=O)c1ccc(/C=N/Nc2ncnc3c2cnn3-c2ccccn2)cc1` [Example 19, N-[2-(Dimethylamino)ethyl]-4-{(E)-[(1-pyridin-2-yl-1H-pyrazolo[3,4-d]pyrimidin-4-yl)hydrazono]methyl}benzenesulfonamide] had a concentration for half-maximal inhibition (IC50) of 100 to 1000 nM.
`COc1cccc(-n2ncc3c(N/N=C/c4ccc(S(=O)(=O)NCCN(C)C)cc4)ncnc32)n1` [Example 6, N-[2-(Dimethylamino)ethyl]-4-((E)-{[1-(6-methoxypyridin-2-yl)-1H-pyrazolo[3,4-d]pyrimidin-4-yl]hydrazono}methyl)benzenesulfonamide]: the IC50 is under 100 nM.
Compound `CC(C)(C)OC(=O)N1CCC(/C=N/Nc2ncnc3c2cnn3-c2ccccn2)CC1` [Example 15, tert-Butyl 4-{(E)-[(1-pyridin-2-yl-1H-pyrazolo[3,4-d]pyrimidin-4-yl)hydrazono]methyl}piperidine-1-carboxylate] had an IC50 of 1000 to 10000 nM.
Take `COc1cccc(-n2ncc3c(N/N=C/c4ccc(C(=O)NCCS(C)(=O)=O)cc4)ncnc32)n1` [Example 9, 4-((E)-{[1-(6-methoxypyridin-2-yl)-1H-pyrazolo[3,4-d]pyrimidin-4-yl]hydrazono}methyl)-N-[2-(methylsulfonyl)ethyl]benzamide]: the IC50 was under 100 nM.
In turn, `COc1cccc(-n2ncc3c(N/N=C/c4ccc(S(=O)(=O)NCCN5CCOCC5)cc4)ncnc32)n1` [Example 7, 4-((E)-{[1-(6-methoxypyridin-2-yl)-1H-pyrazolo[3,4-]pyrimidin-4-yl]hydrazono}methyl)-N-(2-morpholin-4-ylethyl)benzenesulfonamide] showed an IC50 of under 100 nM.
Turning to `CN(C)CCNC(=O)c1ccc(/C=N/Nc2ncnc3c2cnn3-c2ccccn2)cc1` [Example 21, N-[2-(Dimethylamino)ethyl]-4-{(E)-[(1-pyridin-2-yl-1H-pyrazolo[3,4-d]pyrimidin-4-yl)hydrazono]methyl}benzamide hydrochloride], the IC50 was 100 to 1000 nM.
The result for `Fc1ccc(/C=N/Nc2ncnc3c2cnn3-c2cccnc2)cc1` [Example 33, 4-Fluorobenzaldehyde (1-pyridin-3-yl-1H-pyrazolo[3,4-d]pyrimidin-4-yl)hydrazone] reads under 100 nM.
As to `COc1cccc(-n2ncc3c(N/N=C/c4ccc(Cl)nc4)ncnc32)n1` [Example 5, 6-Chloronicotinaldehyde [1-(6-methoxypyridin-2-yl)-1H-pyrazolo[3,4-d]pyrimidin-4-yl]hydrazone], the IC50 is under 100 nM.
The result for `CN(C)c1ccc(/C=N/Nc2ncnc3c2cnn3-c2ccccn2)cn1` [Example 18, 6-(Dimethylamino)nicotinaldehyde (1-pyridin-2-yl-1H-pyrazolo[3,4-d]pyrimidin-4-yl)hydrazone] reads 1000 to 10000 nM; that for `COc1cccc(-n2ncc3c(N/N=C/c4ccc(C(=O)NCCCN5CCCC5)cc4)ncnc32)n1` [Example 12, 4-((E)-{[1-(6-methoxypyridin-2-yl)-1H-pyrazolo[3,4-d]pyrimidin-4-yl]hydrazono}methyl)-N-(3-pyrrolidin-1-ylpropyl)benzamide], under 100 nM; that for `C(=NNc1ncnc2c1cnn2-c1nccs1)c1ccncc1` [Example 24, Isonicotinaldehyde [1-(1,3-thiazol-2-yl)-1H-pyrazolo[3,4-d]pyrimidin-4-yl]hydrazone], under 100 nM.
Compound `Fc1ccc(/C=N/Nc2ncnc3c2cnn3-c2cccc3[nH]cnc23)cc1` [Example 29, 4-Fluorobenzaldehyde [1-(1H-benzimidazol-4-yl)-1H-pyrazolo[3,4-d]pyrimidin-4-yl]hydrazone] gave an IC50 of under 100 nM.
The result for `CS(=O)(=O)CCNC(=O)c1ccc(/C=N/Nc2ncnc3c2cnn3-c2ccccn2)cc1` [Example 22, N-[2-(Methylsulfonyl)ethyl]-4-{(E)-[(1-pyridin-2-yl-1H-pyrazolo[3,4-d]pyrimidin-4-yl)hydrazono]methyl}benzamide] reads 100 to 1000 nM.
